For 64 compounds, inhibition and IC50 results are on record in ChEMBL document CHEMBL1165848, “Discovery of new cholesteryl ester transfer protein inhibitors via ligand-based pharmacophore modeling and QSAR analysis followed by synthetic exploration” (Eur J Med Chem, 2010).

The target in one assay is T1, Cholesteryl ester transfer protein (Oryctolagus cuniculus) (UniProt P22687).
T1 sequence (whole entry): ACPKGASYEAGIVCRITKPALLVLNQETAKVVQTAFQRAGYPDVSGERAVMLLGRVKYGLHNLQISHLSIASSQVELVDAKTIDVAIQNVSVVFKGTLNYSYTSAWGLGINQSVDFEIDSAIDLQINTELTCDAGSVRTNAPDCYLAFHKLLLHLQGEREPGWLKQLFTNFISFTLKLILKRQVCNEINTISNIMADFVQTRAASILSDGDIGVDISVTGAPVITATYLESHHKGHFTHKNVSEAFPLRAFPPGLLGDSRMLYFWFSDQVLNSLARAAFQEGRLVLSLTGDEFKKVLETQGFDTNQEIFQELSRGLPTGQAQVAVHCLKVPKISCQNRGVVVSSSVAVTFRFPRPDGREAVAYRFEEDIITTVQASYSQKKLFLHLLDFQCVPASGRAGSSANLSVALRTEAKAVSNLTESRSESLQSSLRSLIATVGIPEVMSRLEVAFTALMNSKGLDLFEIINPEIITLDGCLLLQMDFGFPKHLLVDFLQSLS
The experiment in a line: Inhibition of CETP in rabbit serum at 10 uM after 1 hr by fluorescent cholesteryl esters transfer assay.
Conditions: not given
What is called inhibition is the drop in the measured response relative to a control, in per cent. The low end stands for a response near the control, the high end for a response far below the control. For the compound `C[C@]12CC[C@@H]3c4ccc(O)cc4C[C@@H](CCCCCCCCC[S+]([O-])CCCC(F)(F)C(F)(F)F)[C@H]3[C@@H]1CC[C@@H]2O` (stereo partly drawn), the inhibition came to 5.7%.
The same measure, in the same setting: under `O=S(=O)(Nc1ccc(CSc2ccc(Cl)cc2)cc1)c1ccccc1` stands 82.5%; under `Cc1cc[n+](CC(=O)CCc2ccc(C(=O)C[n+]3ccc(C)cc3)cc2)cc1`, 6%.
Still for that read-out and setting: to `OCc1cc(C(O)CNCCCCCCOCCCCc2ccccc2)ccc1O` (stereo not drawn) belongs 27.4%; to `O=C(c1ccccc1)c1cccc(/N=C/c2ccc(C(F)(F)F)cc2)c1`, 26.3%; to `CCCCOc1ccc(NC(=N)Nc2ccc(Cl)cc2)cc1`, 0%.
Regarding `O=C(COc1cccc(Cl)c1)Nc1cccc(CN2C(=O)c3ccccc3C2=O)c1`, the inhibition turned out to be 0%.
As for `Cc1ccc(S(=O)(=O)Nc2cccc3c(NS(=O)(=O)c4ccc(C)cc4)cccc23)cc1`, the inhibition stood at 0%.
`CCN(CC)Cc1cc(Nc2ccnc3cc(Cl)ccc23)ccc1O` displayed an inhibition of 18.6%.
Compound `OC(COc1c(Cl)cc(Cl)cc1Cl)COc1c(Cl)cc(Cl)cc1Cl` showed an inhibition of 0%.
Still for that read-out and setting: to `Cc1cc2c(cc1C)NC1=C(O)C(c3c[nH]c4ccc(COc5ccccc5)cc34)OC1=N2` (stereo not drawn) belongs 0%; to `COc1ccc(/C=N/c2ccc(C(=O)c3ccccc3)cc2)cc1`, 19.9%; to `Cc1ccc(NC(=O)c2ccc(C(=O)Nc3ccc(C)c(Cl)c3)cc2)cc1Cl`, 0%.
Still for that read-out and setting: to `Clc1ccc2c(NCCCC/N=C/c3ccccc3)cccc2c1` belongs 0%; to `COc1ccc(C(=O)c2ccc(/N=C/c3ccc(C(C)(C)C)cc3)cc2)c(OC)c1`, 24.9%.
In turn, `O=c1oc2ccccc2c(O)c1C(CC(O)c1ccc(-c2ccc(Br)cc2)cc1)c1ccccc1` (stereo not drawn) came in with an inhibition of 0%.
In turn, `N=c1[nH]c(=O)n(CCCOc2cccc(Cl)c2)cc1-c1ccc(Cl)c(Cl)c1` showed an inhibition of 0%.
Consider `O=C(Nc1ccc(Br)cc1)N1CCN(C(=O)Nc2ccc(Br)cc2)CC1`, for which the inhibition was 0%.
In turn, `CC(C)OC(=O)CCC/C=C\C[C@@H]1[C@@H](/C=C/[C@@H](O)COc2cccc(C(F)(F)F)c2)[C@H](O)C[C@@H]1O` had an inhibition of 0%.
On to `COc1cc(N)c(Cl)cc1C(=O)NC1CCN(CCCOc2ccc(F)cc2)CC1OC` (stereo not drawn), for which the inhibition is 10.6%.
`CCCCOc1ccc2nccc(N/N=C/c3ccc(OC)c4ccccc34)c2c1` came in with an inhibition of 25.4%.
As to `O=C(Nc1ccc2c(c1)CCC2)c1ccc(C(=O)Nc2ccc3c(c2)CCC3)cc1`, the inhibition came to 0%.
Still for that read-out and setting: to `O=C(Nc1ccc(Cl)c(Cl)c1)OCC(Cl)COc1ccc(Cl)cc1` (stereo not drawn) belongs 0%.
Same read-out and setting: under `C=CCc1cccc(/C=N/c2ccccc2NS(=O)(=O)c2ccc(C)cc2)c1O` stands 22.6%; under `COc1ccc(/C=N/c2cccc(C(=O)c3ccc(OC)cc3)c2)cc1`, 14.8%; under `CCOc1cc(C2SCC(=O)N2c2ccc(Oc3ccc(Cl)cc3)c(Cl)c2)ccc1O` (stereo not drawn), 6.7%.
In the case of `CC(C)(C)c1ccc(C(O)CCCN2CCC(C(O)(c3ccccc3)c3ccccc3)CC2)cc1` (stereo not drawn), the inhibition was determined as 0%.
Regarding `COc1ccc(Cl)cc1C(=O)NCCc1ccc(S(=O)(=O)NC(=O)NC2CCCCC2)cc1` [GLYBURIDE], the inhibition was found to be 35%.
In the case of `N=C(Nc1cccc2ccccc12)SCCCSC(=N)Nc1cccc2ccccc12`, the inhibition was 0%.
As for `O=C(CCCCC(=O)Nc1c(I)cc(I)c(C(=O)O)c1I)Nc1c(I)cc(I)c(C(=O)O)c1I`, the inhibition worked out at 15.9%.
`CC(C)OC(=O)CCC/C=C\C[C@@H]1[C@@H](CC[C@@H](O)CCc2ccccc2)[C@H](O)C[C@@H]1O` showed an inhibition of 11.4%.
In the case of `CN(CN(C)/N=C\c1ccc(Cl)cc1)/N=C\c1ccc(Cl)cc1`, the inhibition was found to be 0%.
`Cc1ccc(Nc2ccc(Nc3ccc(C)cc3)c3c2C(=O)c2cccc(O)c2C3=O)cc1` came in with an inhibition of 14%.
In the case of `CCCCCCCCOC(=O)c1ccc2c(c1)Nc1cc3ccccc3cc1N2`, the inhibition came out at 33%.
With `Cc1cc(Cl)c(Cl)cc1NC(=O)c1cccc(C(=O)Nc2cc(Cl)c(Cl)cc2C)c1`, the inhibition amounted to 0%.
`O=C(c1ccccc1)c1ccccc1NCC(O)COc1ccc(Cl)cc1` (stereo not drawn) returned an inhibition of 0%.
`O=C(c1ccc(/N=C/c2cccc(C(F)(F)F)c2)cc1)c1ccc(-c2ccccc2)cc1` gave an inhibition of 9.8%.
Compound `COc1ccc2nc3cc(Cl)ccc3c(Nc3ccc(C(O)CCn4cccc4)cc3)c2c1` (stereo not drawn) showed an inhibition of 13.4%.
On to `O=C(c1ccccc1)c1cc(Cl)ccc1NCC(O)COc1ccc(Cl)cc1` (stereo not drawn), for which the inhibition came out at 8.1%.
On to `O=C(Nc1ccc(Cl)cc1C(F)(F)F)Oc1ccc(OCc2ccccc2)cc1`, for which the inhibition is 22.1%.
Turning to `CCN(CC)c1ccc(Nc2ccc(CC(=O)c3ccccc3)cc2)cc1`, the inhibition is 52.5%.
`O=C(c1ccc(-c2ccccc2)cc1)c1cccc(/N=C/c2cccc(C(F)(F)F)c2)c1`: the inhibition stood at 33.8%.
Same read-out and setting: to `C/C=C/c1ccc2oc(-c3ccc(OC4OC(C)C(O)C(O)C4O)cc3)c(C)c2c1` (stereo not drawn) belongs 9%.
The compound `Cc1ccc(Nc2ccc(Nc3ccc(C)cc3)c3c2C(=O)c2cc(Cl)c(Cl)cc2C3=O)cc1` gave an inhibition of 20.8%.
`O=C(NC(=O)c1c(F)cccc1F)Nc1ccc(Cl)c(Oc2ncc(C(F)(F)F)cc2Cl)c1` returned an inhibition of 0%.
The same measure, in the same setting: to `CCCNCC(O)COc1ccccc1C(=O)CCc1ccccc1` (stereo not drawn) belongs 0%; to `CCOc1ccc(/N=C/c2ccc(O)c(OC)c2)c(O)c1`, 25.5%; to `COc1ccc(CCN2CCC(Nc3nc4ccccc4n3Cc3ccc(F)cc3)CC2)cc1`, 20.8%.
Turning to `COc1ccc(OCCCn2cc(-c3ccc(Cl)c(Cl)c3)c(=N)[nH]c2=O)cc1`, the inhibition came out at 0%.
`COc1ccc(C(=O)c2ccc(/N=C/c3ccc(C(F)(F)F)cc3)cc2)c(OC)c1` came in with an inhibition of 15.4%.
`CCSc1nc2ccc(/N=C\c3ccc(NS(=O)(=O)c4ccccc4)cc3O)cc2s1` registered an inhibition of 0%.
Consider `O=C(NCCCOc1ccc(Cl)c(Cl)c1)NCCc1ccc(Cl)c(Cl)c1`, for which the inhibition came out at 0%.
The compound `COc1cccc(/C=N/c2ccc(C(=O)c3ccc(OC)cc3OC)cc2)c1` returned an inhibition of 23.7%.
`CC(C)[C@H](Nc1ccc(C(F)(F)F)cc1Cl)C(=O)OC(C#N)c1cccc(Oc2ccccc2)c1` (stereo partly drawn): the inhibition was 0%.
Same read-out and setting: under `N=c1[nH]c(=O)n(CCCOc2ccccc2)cc1-c1ccc(Cl)c(Cl)c1` stands 0%.
Still for that read-out and setting: to `CC(C)(C(=O)O)c1ccc(C(O)CCCN2CCC(C(O)(c3ccccc3)c3ccccc3)CC2)cc1` (stereo not drawn) belongs 0%; to `COc1ccc(C(=O)c2ccc(/N=C/c3cccc(C(F)(F)F)c3)cc2)c(OC)c1`, 14.9%.
`COc1ccc(/N=C/c2ccc(N(CCC#N)S(=O)(=O)c3ccccc3)cc2)cc1` showed an inhibition of 0%.
`COc1ccc(/C=N/c2ccc(C(=O)c3ccc(OC)cc3OC)cc2)cc1` registered an inhibition of 19.5%.
The compound `COc1ccc(C(=O)c2cccc(/N=C/c3ccccc3)c2)cc1` returned an inhibition of 12.6%.
Same read-out and setting: to `CC(C)C[C@H]1C(=O)N2CCC[C@H]2[C@]2(O)O[C@](NC(=O)[C@@H]3C=C4c5cccc6[nH]c(Br)c(c56)C[C@H]4N(C)C3)(C(C)C)C(=O)N12` belongs 12.3%.
`OC1=C2Nc3ccc(Cl)cc3N=C2OC1c1c[nH]c2ccc(COc3ccccc3)cc12` (stereo not drawn) registered an inhibition of 9.1%.
Take `CCN(CC)CCC(=O)c1ccc(Nc2ccnc3cc(Cl)ccc23)cc1`: the inhibition worked out at 20.3%.

The next assay has as its target T2, Cholesteryl ester transfer protein (Oryctolagus cuniculus, UniProt P22687).
T2 sequence (P22687 whole entry): T1 sequence (whole entry)
The experiment in a line: Inhibition of CETP in rabbit serum after 1 hr by fluorescent cholesteryl esters transfer assay. To be noted: read-out: IC50.
As usually defined, the IC50 is the concentration at which inhibition is half-maximal. With `O=S(=O)(Nc1ccc(CSc2ccc(Cl)cc2)cc1)c1ccccc1`, the IC50 worked out at 1.9 µM.
On to `COc1ccc(Cl)cc1C(=O)NCCc1ccc(S(=O)(=O)NC(=O)NC2CCCCC2)cc1` [GLYBURIDE], for which the IC50 worked out at 239 µM.
On to `CCCCCCCCOC(=O)c1ccc2c(c1)Nc1cc3ccccc3cc1N2`, for which the IC50 turned out to be 60.3 µM.
Consider `CCN(CC)c1ccc(Nc2ccc(CC(=O)c3ccccc3)cc2)cc1`, for which the IC50 is 6.5 µM.
The same measure, in the same setting: under `OC(CN(Cc1cccc(OC(F)(F)C(F)F)c1)c1cccc(Oc2ccc(Cl)cc2)c1)C(F)(F)F` (stereo not drawn) stands 0.3 µM.
